According to ChEMBL document CHEMBL1201862, “PubChem BioAssay data set” (2004):
The source made the active and inactive calls.

Columns and labels:
[1] = target: T1, Apoptotic protease-activating factor 1 (Homo sapiens, UniProt O14727); type: functional
T1 sequence (O14727 whole entry): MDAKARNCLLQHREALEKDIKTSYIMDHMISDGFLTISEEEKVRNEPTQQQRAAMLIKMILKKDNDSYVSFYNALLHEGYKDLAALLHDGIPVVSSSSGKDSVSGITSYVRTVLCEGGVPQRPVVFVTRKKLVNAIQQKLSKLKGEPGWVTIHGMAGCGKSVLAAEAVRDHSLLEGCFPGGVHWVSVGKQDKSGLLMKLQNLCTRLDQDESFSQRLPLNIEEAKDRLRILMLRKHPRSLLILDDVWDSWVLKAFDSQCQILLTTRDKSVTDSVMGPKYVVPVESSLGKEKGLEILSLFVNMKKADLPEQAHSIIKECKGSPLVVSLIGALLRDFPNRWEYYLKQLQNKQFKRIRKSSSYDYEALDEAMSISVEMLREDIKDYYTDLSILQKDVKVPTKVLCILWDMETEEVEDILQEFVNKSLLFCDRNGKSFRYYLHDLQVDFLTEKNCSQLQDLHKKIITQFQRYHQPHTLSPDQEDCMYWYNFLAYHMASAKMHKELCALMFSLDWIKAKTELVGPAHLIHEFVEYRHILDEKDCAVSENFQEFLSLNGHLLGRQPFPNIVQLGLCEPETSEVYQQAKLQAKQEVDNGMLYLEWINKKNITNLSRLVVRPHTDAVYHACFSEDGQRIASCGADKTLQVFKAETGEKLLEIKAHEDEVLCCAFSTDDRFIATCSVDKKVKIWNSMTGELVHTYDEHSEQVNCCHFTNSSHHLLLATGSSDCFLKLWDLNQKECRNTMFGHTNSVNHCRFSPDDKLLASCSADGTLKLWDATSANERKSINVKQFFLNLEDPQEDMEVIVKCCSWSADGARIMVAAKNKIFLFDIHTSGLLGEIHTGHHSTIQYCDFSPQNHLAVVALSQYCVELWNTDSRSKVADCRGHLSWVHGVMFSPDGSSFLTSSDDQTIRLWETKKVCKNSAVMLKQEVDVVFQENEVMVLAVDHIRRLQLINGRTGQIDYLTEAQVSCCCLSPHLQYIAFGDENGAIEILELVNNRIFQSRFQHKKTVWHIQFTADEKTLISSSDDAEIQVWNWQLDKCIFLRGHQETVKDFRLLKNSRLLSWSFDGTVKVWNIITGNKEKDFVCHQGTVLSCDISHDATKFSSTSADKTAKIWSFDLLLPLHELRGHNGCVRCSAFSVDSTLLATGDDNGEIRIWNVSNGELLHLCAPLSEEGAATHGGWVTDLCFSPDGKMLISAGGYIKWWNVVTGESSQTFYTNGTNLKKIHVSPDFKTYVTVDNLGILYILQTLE

[2] = target: T2, Rac GTPase-activating protein 1 (Homo sapiens, UniProt Q9H0H5); assay: blockers of MgcRacGAP-driven Rac1 GTP hydrolysis – biochemical, ADP Hunter fluorescence, primary and confirmatory, confirmation (AID 624330); type: functional
T2 sequence (Q9H0H5 whole entry): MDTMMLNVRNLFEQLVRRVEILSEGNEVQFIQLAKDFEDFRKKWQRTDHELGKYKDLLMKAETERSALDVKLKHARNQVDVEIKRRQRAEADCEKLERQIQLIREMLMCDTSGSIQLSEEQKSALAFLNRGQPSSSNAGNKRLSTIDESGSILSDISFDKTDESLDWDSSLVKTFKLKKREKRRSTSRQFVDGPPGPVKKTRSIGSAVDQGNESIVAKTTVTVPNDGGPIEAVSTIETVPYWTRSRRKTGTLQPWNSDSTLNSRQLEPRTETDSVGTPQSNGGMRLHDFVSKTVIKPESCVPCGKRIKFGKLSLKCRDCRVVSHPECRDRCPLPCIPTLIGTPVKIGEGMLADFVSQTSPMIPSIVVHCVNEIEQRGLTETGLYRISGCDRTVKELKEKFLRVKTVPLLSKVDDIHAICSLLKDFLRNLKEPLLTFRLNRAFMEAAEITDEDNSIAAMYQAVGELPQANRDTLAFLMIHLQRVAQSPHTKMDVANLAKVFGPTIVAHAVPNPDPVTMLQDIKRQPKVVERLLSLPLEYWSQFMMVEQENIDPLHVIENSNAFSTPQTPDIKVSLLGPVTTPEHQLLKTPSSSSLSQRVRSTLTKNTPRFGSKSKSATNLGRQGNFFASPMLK

[3] = target: Paired box protein Pax-8 (Homo sapiens, UniProt Q06710); assay: PAX8 transcriptional activity inhibition in RMG-I – RMG-I cells, luciferase, cherry-pick, dose response (AID 687027); type: functional, cell-based;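 note: luciferase reporter driven by Pax8 target thyroperoxidase promoter measured by SteadyGlo luminescence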
Chain of Paired box protein Pax-8 (Q06710 whole entry): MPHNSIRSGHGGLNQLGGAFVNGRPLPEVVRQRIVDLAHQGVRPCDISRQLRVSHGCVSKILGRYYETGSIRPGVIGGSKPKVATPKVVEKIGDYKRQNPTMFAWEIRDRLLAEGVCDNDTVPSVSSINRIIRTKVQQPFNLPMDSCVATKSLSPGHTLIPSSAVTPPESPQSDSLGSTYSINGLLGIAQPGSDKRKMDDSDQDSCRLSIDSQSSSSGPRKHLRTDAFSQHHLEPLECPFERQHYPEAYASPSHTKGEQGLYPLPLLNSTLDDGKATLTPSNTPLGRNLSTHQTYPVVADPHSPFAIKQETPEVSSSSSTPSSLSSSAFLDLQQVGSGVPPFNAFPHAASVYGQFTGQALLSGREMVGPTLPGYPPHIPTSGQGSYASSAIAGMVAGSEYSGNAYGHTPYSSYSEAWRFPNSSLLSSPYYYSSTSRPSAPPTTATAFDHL

[4] = viability loss in HeLa cells – cytotoxicity control for MgcRacGAP inhibitor project, dose response (AID 624300); type: functional
[5] = loss of viability in HepG2 cells – cell-based, CellTiter-Glo, cherry-picked, cytotoxicity control for Shn3 inhibitor project, dose response (AID 624134); type: functional
[6] = system: INS1; assay: INS-1E survival protection against cytokine death – cell-based, luminescence, retest, dose response (AID 449756); type: functional; conditions: Rattus norvegicus;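 note: cell death triggered by IL-1 beta plus TNF-alpha plus IFN-gamma mixture; protective hits raise ATP signal compared with cytokine alone wells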
[7] = non-specific 3'UTR reporter inhibition in Clone20-Shn3RL – cell-based, Renilla luciferase, cherry-picked, counter-screen for Shn3 inhibitor project, dose response (AID 624133); type: functional
[8] = reduction of Shn3 3'UTR-driven luciferase in osteoblasts – cell-based, Clone20 osteoblasts, firefly luciferase, cherry-picked, dose response (AID 624132); type: functional;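 note: firefly luciferase luminescence from reporter carrying the Shn3 3'UTR in osteoblasts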
[9] = target: T3, Microphthalmia-associated transcription factor (Homo sapiens, UniProt O75030); assay: reducers of TRPM1 reporter luminescence, concentration series – cell-based, SK-MEL-5, cherry-picked, set 3, MITF inhibitor project, dose response (AID 493073); type: functional;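 note: SK-MEL-5 melanoma cells with luciferase driven by the MITF target TRPM1 promoter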
T3 sequence (O75030 whole entry): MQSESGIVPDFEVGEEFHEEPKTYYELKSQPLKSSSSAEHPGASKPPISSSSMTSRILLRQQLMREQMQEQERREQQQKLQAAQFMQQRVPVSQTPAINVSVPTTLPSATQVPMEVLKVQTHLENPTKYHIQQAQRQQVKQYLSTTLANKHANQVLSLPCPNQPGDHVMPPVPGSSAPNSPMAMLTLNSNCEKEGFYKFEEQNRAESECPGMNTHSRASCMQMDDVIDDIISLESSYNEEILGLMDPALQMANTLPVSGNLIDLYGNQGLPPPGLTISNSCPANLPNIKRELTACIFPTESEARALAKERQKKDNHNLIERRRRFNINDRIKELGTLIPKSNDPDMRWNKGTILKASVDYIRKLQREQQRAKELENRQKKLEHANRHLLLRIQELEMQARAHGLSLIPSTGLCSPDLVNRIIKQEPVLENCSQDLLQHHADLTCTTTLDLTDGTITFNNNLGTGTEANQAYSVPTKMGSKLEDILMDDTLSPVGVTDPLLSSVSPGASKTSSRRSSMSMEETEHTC

[10] = blockade of melanocortin 4 receptor signaling – cell-based, plate reader, cherry pick, counter-screen for LGR2 antagonist project, dose response (AID 743444); type: functional;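 note: transfected HEK 293 cells stimulated with alpha-MSH peptide; potency of inhibitors of the alpha-MSH evoked signal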
[11] = blockers of bursicon-stimulated LGR2 cAMP reporter – cell-based, HEK293, CRE-luciferase reporter, cherry pick, set 2, dose response (AID 743343); type: functional;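 note: transfected cells were stimulated with diluted bursicon conditioned medium after compound addition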
[12] = A549 cell cytotoxicity, dose response, cytotoxicity control, plate reader, cherry-pick, antagonist series (AID 743412); type: functional, cell-based

Oc1ccc(/C=N\Nc2cc(N3CCOCC3)nc(N3CCOCC3)n2)c(O)c1
active: IC50 [1] 7.15 µM | IC50 [2] 57.1 µM | AC50 [3] 20.4 µM | CC50 [4] 100 µM

Cc1ccc(C)c(S(=O)(=O)N2CCN(Cc3ccc(O)c4ncccc34)CC2)c1
active: AC50 [5] 5.3 µM | AC50 [6] 2.48 µM | AC50 [7] 1.23 µM | AC50 [8] 2.84 µM | AC50 [9] 4.44 µM

COc1cc(NC(=O)Cn2ncc(Cl)c(Cl)c2=O)c(C)cc1[N+](=O)[O-]
active: AC50 [10] 29 µM | AC50 [11] 23.2 µM | AC50 [5] 40.9 µM | AC50 [12] 5.78 µM | AC50 [3] 4.62 µM | AC50 [7] 3.3 µM | AC50 [8] 3.44 µM
